Measurements: US20250361230A1, “LATS Inhibitors and Uses Thereof” (The USA, as Represented by the Secretary, Dept. of Heath …, priority 2022, published 2025)

How the values were obtained:
Assay type in all cases: biochemical
LATS1 = molecular target: T1, LATS1 (Homo sapiens, UniProt O95835); experiment: RBC HotSpot kinase assay (33P-ATP, P81 filter-binding), LATS1; conditions: Table 28, biochemical kinase assay; read-out: LATS1 IC50
T1 sequence (O95835 1-1130): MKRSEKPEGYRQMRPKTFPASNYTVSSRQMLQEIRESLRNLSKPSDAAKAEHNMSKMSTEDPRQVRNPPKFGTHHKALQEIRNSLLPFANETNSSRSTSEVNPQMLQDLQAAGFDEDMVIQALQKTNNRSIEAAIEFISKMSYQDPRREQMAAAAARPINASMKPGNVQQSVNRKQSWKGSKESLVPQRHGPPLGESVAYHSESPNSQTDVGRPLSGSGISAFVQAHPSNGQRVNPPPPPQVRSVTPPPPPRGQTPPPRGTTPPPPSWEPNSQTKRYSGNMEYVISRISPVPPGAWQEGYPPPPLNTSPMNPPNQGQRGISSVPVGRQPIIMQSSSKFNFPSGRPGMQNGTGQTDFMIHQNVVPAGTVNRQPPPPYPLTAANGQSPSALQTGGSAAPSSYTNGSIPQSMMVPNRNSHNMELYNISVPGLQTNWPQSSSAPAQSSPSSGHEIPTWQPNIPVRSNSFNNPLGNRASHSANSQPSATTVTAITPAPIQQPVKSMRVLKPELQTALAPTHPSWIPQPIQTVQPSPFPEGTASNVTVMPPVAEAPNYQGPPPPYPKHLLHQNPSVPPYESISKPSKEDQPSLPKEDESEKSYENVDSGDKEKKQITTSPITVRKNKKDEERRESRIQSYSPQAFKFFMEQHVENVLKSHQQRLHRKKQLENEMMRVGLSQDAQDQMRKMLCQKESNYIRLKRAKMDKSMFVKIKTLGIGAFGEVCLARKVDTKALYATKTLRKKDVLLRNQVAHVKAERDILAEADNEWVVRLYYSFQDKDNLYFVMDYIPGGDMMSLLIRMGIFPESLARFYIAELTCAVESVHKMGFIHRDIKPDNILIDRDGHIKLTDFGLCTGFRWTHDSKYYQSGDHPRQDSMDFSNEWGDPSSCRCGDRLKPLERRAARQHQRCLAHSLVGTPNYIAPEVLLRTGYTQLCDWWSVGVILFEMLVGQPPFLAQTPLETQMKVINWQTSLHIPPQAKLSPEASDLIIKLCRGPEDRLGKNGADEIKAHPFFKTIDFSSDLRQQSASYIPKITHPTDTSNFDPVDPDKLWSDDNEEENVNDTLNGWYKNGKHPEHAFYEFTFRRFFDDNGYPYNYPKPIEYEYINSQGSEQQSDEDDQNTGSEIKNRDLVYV
Experimental: (§1) Biochemical kinase inhibitory data was obtained for various exemplary compounds prepared according to the above.
(§2) The reagents used are as follows: Base Reaction buffer; 20 mM Hepes (pH 7.5), 10 mM MgCl2, 1 mM EGTA, 0.01% Brij35, 0.02 mg/ml BSA, 0.1 mM Na3VO4, 2 mM DTT, […]. Required cofactors were added individually to each kinase reaction.
(§3) The reaction procedure was as follows: • 1) Substrates were prepared in freshly prepared Reaction Buffer. • 2) Any required cofactors were delivered to the substrate solution above. • 3) Kinase was delivered into the substrate solution and gently mixed. • 4) Compounds were delivered in 100% DMSO into the kinase reaction mixture by Acoustic technology (Echo550; nanoliter range), followed by incubation for 20 min at room temp. • 5) ^33P-ATP was delivered into the reaction mixture to initiate the reaction. • 6) The mixture was incubated for 2 hours at room temperature. • 7) Kinase activity was detected by P81 filter-binding method.
(§4) Using the above functional assay, the inhibitory activity of the compounds for LATS1/2 versus AKT was characterized. The assays were typically run in a 10-point curve, in singlet, to produce a titration curve from which an IC50 value was obtained.
(§5) The reagents used are as follows: Base Reaction buffer; 20 mM Hepes (pH 7.5), 10 mM MgCl2, 1 mM EGTA, 0.01% Brij35, 0.02 mg/ml BSA, 0.1 mM Na3VO4, 2 mM DTT, 1% DMSO. Required cofactors were added individually to each kinase reaction.
(§6) Biochemical kinase inhibitory data was obtained for various exemplary compounds prepared according to the above in accordance with the protocols described in Examples 4 and 8. All biological activities are IC50, in nM.

LATS2 = molecular target: T2, LATS2 (Homo sapiens, UniProt Q9NRM7); experiment: RBC HotSpot kinase assay (33P-ATP, P81 filter-binding), LATS2; conditions: Table 28, biochemical kinase assay; read-out: LATS2 IC50
T2 sequence (Q9NRM7 1-1088): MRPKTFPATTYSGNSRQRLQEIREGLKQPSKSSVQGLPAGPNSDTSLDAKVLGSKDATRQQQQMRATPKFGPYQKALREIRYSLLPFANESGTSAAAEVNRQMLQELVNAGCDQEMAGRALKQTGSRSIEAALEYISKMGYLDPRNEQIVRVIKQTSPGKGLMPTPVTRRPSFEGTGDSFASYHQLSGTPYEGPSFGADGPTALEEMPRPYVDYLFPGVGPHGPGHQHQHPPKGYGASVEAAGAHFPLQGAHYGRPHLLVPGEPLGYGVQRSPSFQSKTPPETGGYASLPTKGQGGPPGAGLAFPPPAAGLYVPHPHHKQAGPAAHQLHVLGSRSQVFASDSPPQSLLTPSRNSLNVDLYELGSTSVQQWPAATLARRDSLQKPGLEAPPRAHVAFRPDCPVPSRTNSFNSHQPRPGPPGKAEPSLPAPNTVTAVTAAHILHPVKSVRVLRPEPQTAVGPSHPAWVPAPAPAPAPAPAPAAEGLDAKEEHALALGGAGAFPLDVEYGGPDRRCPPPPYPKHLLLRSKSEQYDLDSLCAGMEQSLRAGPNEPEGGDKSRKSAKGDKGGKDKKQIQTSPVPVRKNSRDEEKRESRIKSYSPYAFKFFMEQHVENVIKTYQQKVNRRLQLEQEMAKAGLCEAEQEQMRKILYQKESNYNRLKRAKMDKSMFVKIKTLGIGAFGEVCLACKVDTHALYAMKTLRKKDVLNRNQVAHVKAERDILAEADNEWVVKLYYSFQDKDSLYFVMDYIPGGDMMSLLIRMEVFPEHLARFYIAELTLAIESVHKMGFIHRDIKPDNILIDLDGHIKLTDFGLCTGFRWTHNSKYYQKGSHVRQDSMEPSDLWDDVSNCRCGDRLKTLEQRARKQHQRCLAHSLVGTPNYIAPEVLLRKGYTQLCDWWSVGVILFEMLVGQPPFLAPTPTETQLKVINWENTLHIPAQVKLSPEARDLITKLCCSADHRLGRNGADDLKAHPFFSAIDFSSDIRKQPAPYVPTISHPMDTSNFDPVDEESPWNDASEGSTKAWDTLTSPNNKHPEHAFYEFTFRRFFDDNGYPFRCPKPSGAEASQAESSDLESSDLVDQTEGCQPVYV
Experimental: as §1, §2, §3, §4, §5, §6

AKT = AKT (Homo sapiens, UniProt P31749); experiment: RBC HotSpot kinase assay (33P-ATP, P81 filter-binding), AKT; conditions: Table 28, biochemical kinase assay; read-out: AKT IC50
Chain of AKT (P31749 whole entry): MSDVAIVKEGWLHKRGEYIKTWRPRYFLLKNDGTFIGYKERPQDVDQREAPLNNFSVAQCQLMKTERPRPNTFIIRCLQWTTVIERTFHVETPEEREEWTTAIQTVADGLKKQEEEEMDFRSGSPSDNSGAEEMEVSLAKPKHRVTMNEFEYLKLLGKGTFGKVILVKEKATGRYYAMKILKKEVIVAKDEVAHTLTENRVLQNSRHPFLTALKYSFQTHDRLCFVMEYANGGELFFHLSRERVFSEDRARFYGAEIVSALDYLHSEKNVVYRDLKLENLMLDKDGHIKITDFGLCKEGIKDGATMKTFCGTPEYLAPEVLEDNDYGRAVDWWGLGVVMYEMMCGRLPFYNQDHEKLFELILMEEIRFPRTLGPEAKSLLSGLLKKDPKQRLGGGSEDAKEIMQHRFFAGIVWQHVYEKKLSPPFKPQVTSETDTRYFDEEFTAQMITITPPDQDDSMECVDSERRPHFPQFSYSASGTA
Experimental: as §1, §2, §3, §4, §5, §6

SMILES	IC50 (LATS1) [nM]	IC50 (LATS2) [nM]	IC50 (AKT) [nM]
C[C@@H]1CN(C(CF)CF)C[C@H](C)C1(O)c1ccc(-c2ccnc3[nH]cc(F)c23)cc1Cl (stereo partly drawn) [Compound 53, (3S,5R)-4-(2-chloro-4-(3-fluoro-1H-pyrrolo[2,3-b]pyridin-4-yl)phenyl)-1-(1,3-difluoropropan-2-yl)-3,5-dimethylpiperidin-4-ol]	3	3.6	374
Cc1cc(-c2ccnc3[nH]cc(F)c23)ncc1C1(O)[C@H](C)CN(C2CCS(=O)(=O)CC2)C[C@@H]1C (stereo partly drawn) [Compound 56, 4-((3R,5S)-4-(6-(3-fluoro-1H-pyrrolo[2,3-b]pyridin-4-yl)-4-methylpyridin-3-yl)-4-hydroxy-3,5-dimethylpiperidin-1-yl)tetrahydro-2H-thiopyran 1,1-dioxide]	2080	4250	> 10000
C[C@@H]1CN(C(=O)[C@H]2CCCN2)C[C@H](C)[C@@]1(O)c1c(F)cc(-c2ccnc3[nH]cc(F)c23)cc1F [Compound 59, 4-(4-((3S,4R,5R)-1-(L-prolyl)-4-hydroxy-3,5-dimethylpiperidin-4-yl)-3,5-difluorophenyl)-3-fluoro-1H-pyrrolo[2,3-b]pyridine]	21.6	10.3	1470
Cc1cc(-c2ccnc3[nH]cc(F)c23)cc(F)c1[C@@]1(O)[C@H](C)CN(C(=O)C2(N)CC(F)(F)C2)C[C@@H]1C [Compound 62, (1-amino-3,3-difluorocyclobutyl) ((3S,4s,5R)-4-(2-fluoro-4-(3-fluoro-1H-pyrrolo[2,3-b]pyridin-4-yl)-6-methylphenyl)-4-hydroxy-3,5-dimethylpiperidin-1-yl)methanone]	19.7	4.3	5880
Cc1cc(-c2ccnc3[nH]cc(F)c23)cc(F)c1[C@@]1(O)[C@H](C)CN(C(=O)[C@@H]2CCCN2)C[C@@H]1C [Compound 63, 4-(4-((3S,4R,5R)-1-(L-prolyl)-4-hydroxy-3,5-dimethylpiperidin-4-yl)-3-fluoro-5-methylphenyl)-3-fluoro-1H-pyrrolo[2,3-b]pyridine]	8.5	3.4	677
Cc1cc(-c2ccnc3[nH]cc(F)c23)cc(F)c1[C@@]1(O)[C@H](C)CN(C(=O)[C@@H]2CC(F)(F)CN2)C[C@@H]1C [Compound 64, ((S)-4,4-difluoropyrrolidin-2-yl)((3S,4R,5R)-4-(2-fluoro-4-(3-fluoro-1H-pyrrolo[2,3-b]pyridin-4-yl)-6-methylphenyl)-4-hydroxy-3,5-dimethylpiperidin-1-yl)methanone]	6.7	3.6	3140
Cc1cc(-c2ccnc3[nH]cc(F)c23)cc(F)c1[C@@]1(O)[C@H](C)CN(C(=O)[C@@H]2C[C@H](F)CN2)C[C@@H]1C [Compound 65, ((3S,4R,5R)-4-(2-fluoro-4-(3-fluoro-1H-pyrrolo[2,3-b]pyridin-4-yl)-6-methylphenyl)-4-hydroxy-3,5-dimethylpiperidin-1-yl)((2S,4S)-4-fluoropyrrolidin-2-yl)methanone]	8.7	3.2	1180
Cc1cc(-c2ccnc3[nH]cc(F)c23)cc(F)c1[C@@]1(O)[C@H](C)CN(C(=O)[C@@H]2C[C@@H](F)CN2)C[C@@H]1C [Compound 66, ((3S,4R,5R)-4-(2-fluoro-4-(3-fluoro-1H-pyrrolo[2,3-b]pyridin-4-yl)-6-methylphenyl)-4-hydroxy-3,5-dimethylpiperidin-1-yl)((2S,4R)-4-fluoropyrrolidin-2-yl)methanone]	13	3	673
CNCC(=O)N1C[C@@H](C)[C@](O)(c2c(C)cc(-c3ccnc4[nH]cc(F)c34)cc2F)[C@@H](C)C1 [Compound 67, 1-((3S,4s,5R)-4-(2-fluoro-4-(3-fluoro-1H-pyrrolo[2,3-b]pyridin-4-yl)-6-methylphenyl)-4-hydroxy-3,5-dimethylpiperidin-1-yl)-2-(methylamino) ethan-1-one]	8.7	2.8	577
Cc1cc(-c2ccnc3[nH]cc(F)c23)cc(F)c1[C@@]1(O)[C@H](C)CN(C(=O)[C@@H]2COCCN2)C[C@@H]1C [Compound 68, ((3S,4R,5R)-4-(2-fluoro-4-(3-fluoro-1H-pyrrolo[2,3-b]pyridin-4-yl)-6-methylphenyl)-4-hydroxy-3,5-dimethylpiperidin-1-yl)((S)-morpholin-3-yl)methanone]	13.8	6.6	1670
Cc1cc(-c2ccnc3[nH]cc(F)c23)cc(F)c1[C@@]1(O)[C@H](C)CN(C(=O)[C@@H]2C[C@@H](O)CN2)C[C@@H]1C [Compound 69, ((3S,4R,5R)-4-(2-fluoro-4-(3-fluoro-1H-pyrrolo[2,3-b]pyridin-4-yl)-6-methylphenyl)-4-hydroxy-3,5-dimethylpiperidin-1-yl)((2S,4R)-4-hydroxypyrrolidin-2-yl)methanone]	8.5	3.4	677
Cc1cc(-c2ccnc3[nH]cc(F)c23)cc(F)c1[C@@]1(O)[C@H](C)CN(C(=O)[C@@H]2C[C@H](O)CN2)C[C@@H]1C [Compound 70, ((3S,4R,5R)-4-(2-fluoro-4-(3-fluoro-1H-pyrrolo[2,3-b]pyridin-4-yl)-6-methylphenyl)-4-hydroxy-3,5-dimethylpiperidin-1-yl)((2S,4S)-4-hydroxypyrrolidin-2-yl)methanone]	7.8	2.5	376
